pIC50: −log10 of the molar value. Where two headings read alike, the source gives them in different places.
Biological target: canine TRPM8 (Canis lupus familiaris, UniProt Q1A7N1)
Assay: In Vitro Canine TRPM8 Functional Assay (Ca2+ fluorescence, icilin activation)
Assay type: cell-based
Conditions: for pIC50: read-out: IC50; for inhibition at 0.2 µM: read-out: % Inh @ 0.2; for inhibition at 0.5 µM: compound at 0.5 μM, read-out: % Inh @ 0.5
In short: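 Cells (HEK293, stable canine TRPM8) are seeded 24 h before assay. They are then dye-loaded with Calcium 3 at 37 °C followed by room temperature. Compound is added and monitored for 5 min, after which icilin (~80% maximal response) is added.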

[1] = HEK293 cells stably expressing canine TRPM8, icilin activation, eight-point dose-response
[2] = compound at 0.2 μM, canine TRPM8, icilin activation
[3] = canine TRPM8, icilin activation
[4] = 0.2 μM compound, HEK293 cells stably expressing canine TRPM8, icilin activation
[5] = HEK293 cells stably expressing canine TRPM8, icilin activation, average of two or more determinations

canine TRPM8, sequence (Q1A7N1 1-1104): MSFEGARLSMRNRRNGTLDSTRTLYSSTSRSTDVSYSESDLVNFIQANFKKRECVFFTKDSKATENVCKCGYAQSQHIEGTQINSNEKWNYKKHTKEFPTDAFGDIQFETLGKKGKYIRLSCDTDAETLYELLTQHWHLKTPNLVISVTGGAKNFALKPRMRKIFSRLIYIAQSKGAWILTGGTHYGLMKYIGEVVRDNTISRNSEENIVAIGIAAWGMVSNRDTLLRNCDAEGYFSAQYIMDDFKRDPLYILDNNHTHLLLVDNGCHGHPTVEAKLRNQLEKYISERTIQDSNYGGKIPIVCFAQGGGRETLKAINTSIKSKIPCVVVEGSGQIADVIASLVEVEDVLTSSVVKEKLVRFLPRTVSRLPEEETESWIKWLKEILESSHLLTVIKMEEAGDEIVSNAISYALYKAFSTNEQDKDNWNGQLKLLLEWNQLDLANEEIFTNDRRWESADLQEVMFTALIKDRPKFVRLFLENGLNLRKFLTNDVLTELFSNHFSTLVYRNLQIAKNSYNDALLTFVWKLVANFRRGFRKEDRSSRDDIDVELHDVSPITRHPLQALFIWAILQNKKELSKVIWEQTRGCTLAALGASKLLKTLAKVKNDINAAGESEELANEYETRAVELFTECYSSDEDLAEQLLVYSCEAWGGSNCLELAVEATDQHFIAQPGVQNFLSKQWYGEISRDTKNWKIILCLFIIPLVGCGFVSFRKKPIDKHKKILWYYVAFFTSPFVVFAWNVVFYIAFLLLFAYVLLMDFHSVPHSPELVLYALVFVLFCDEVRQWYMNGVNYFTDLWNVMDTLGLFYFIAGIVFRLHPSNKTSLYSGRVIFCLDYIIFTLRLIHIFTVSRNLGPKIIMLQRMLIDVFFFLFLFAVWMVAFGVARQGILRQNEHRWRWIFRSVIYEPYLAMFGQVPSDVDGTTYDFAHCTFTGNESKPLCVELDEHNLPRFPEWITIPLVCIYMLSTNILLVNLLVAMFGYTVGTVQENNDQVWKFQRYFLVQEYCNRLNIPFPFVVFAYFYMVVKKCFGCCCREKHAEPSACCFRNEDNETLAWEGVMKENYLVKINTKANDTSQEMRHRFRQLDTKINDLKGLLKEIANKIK

Row | pIC50 [1] | inhibition at 0.2 µM [2] [%] | Structure (SMILES) | other results
1 | 6.93 | 74.4 | COC(=O)c1ccc(S(=O)(=O)N(CCCCC(F)(F)F)c2sc3ccccc3c2C(C)C)cc1 [Compound 565, N-(3-Isopropyl-benzo[b]thiophen-2-yl)-N-(5,5,5-trifluoro-pentyl)-4-carbomethoxy-benzenesulfonamide] | –
2 | 7.97 | 101 | COC(=O)CCCS(=O)(=O)N(Cc1ccc(F)c(C(F)(F)F)c1)c1sc2ccccc2c1C [Compound 757, N-(4-Fluoro-3-trifluoromethyl-benzyl)-N-(3-methyl-benzo[b]thiophen-2-yl)-3-carbomethoxy-propanesulfonamide] | –
3 | 7.68 | – | COc1cccc(S(=O)(=O)N(Cc2ccc(F)c(F)c2)c2sc3ccccc3c2C)c1 [Compound 25, N-(3,4-Difluoro-benzyl)-N-(3-methyl-benzo[b]thiophen-2-yl)-3-methoxy-benzenesulfonamide] | inhibition at 0.5 µM [3]: 99%
4 | – | 40 | COC(=O)c1cccc(S(=O)(=O)N(Cc2ccc(F)c(C(F)(F)F)c2)c2cc3ccccc3s2)c1 [Compound 136, N-(Benzo[b]thiophen-2-yl)-N-(4-fluoro-3-trifluoromethyl-benzyl)-3-carbomethoxy-benzenesulfonamide] | –
5 | – | 92 | Cc1c(N(Cc2ccc(F)c(C(F)(F)F)c2)S(=O)(=O)c2ccc(N(C)C)nc2)sc2ccccc12 [Compound 360] | –
6 | 7.73 | 93 | C=C(C)c1c(N(Cc2cc(OC)c(Cl)cc2F)S(=O)(=O)CC)sc2ccccc12 [Compound 768, N-(4-Chloro-2-fluoro-5-methoxy-benzyl)-N-(3-isopropenyl-benzo[b]thiophen-2-yl)-ethanesulfonamide] | –
7 | 6.58 | – | CS(=O)(=O)CCN(c1sc2ccccc2c1Cl)S(=O)(=O)c1ccccc1 [Compound 88, N-(3-Chloro-benzo[b]thiophen-2-yl)-N-(2-methanesulfonyl-ethyl)-benzenesulfonamide] | inhibition at 0.5 µM [3]: 88%
8 | 7.40 | – | CCCCN(c1cc2ccccc2s1)S(=O)(=O)c1ccc(C(N)=NC(=O)CO)cc1 [Compound 472, N-(Benzo[b]thiophen-2-yl)-N-(butyl)-4-N-hydroxyacetyl-benzamidine sulfonamide] | % Inh @ 0.2 (μM) [2]: 88%
9 | 8.22 | 103 | Cc1c(N(Cc2ccc(F)c(C(F)(F)F)c2)S(=O)(=O)CCCO)sc2ccccc12 [Compound 699, N-(4-Fluoro-3-trifluoromethyl-benzyl)-N-(3-methyl-benzo[b]thiophen-2-yl)-3-hydroxy-propanesulfonamide] | –
10 | – | 14 | Cc1c(N(Cc2ccc(F)c(C(F)(F)F)c2)S(=O)(=O)c2ccc(-c3cc(C(F)(F)F)nn3C)s2)sc2ccccc12 [Compound 326, N-(3-Methyl-benzo[b]thiophen-2-yl)-N-(4-fluoro-3-trifluoromethyl-benzyl)-5-(2-methyl-5-trifluoromethyl-2H-pyrazol-3-yl)-thien-2-ylsulfonamide] | –
11 | 7.86 | – | CCS(=O)(=O)N(Cc1ccc(F)c(C(F)(F)F)c1)c1sc2ccccc2c1C [Compound 40, N-(4-Fluoro-3-trifluoromethyl-benzyl)-N-(3-methyl-benzo[b]thiophen-2-yl)-ethanesulfonamide] | inhibition at 0.5 µM [3]: 97%
12 | 7.80 | 98 | O=Cc1c(N(Cc2ccc(F)c(C(F)(F)F)c2)S(=O)(=O)c2ccccc2)sc2ccccc12 [Compound 207, N-(4-Fluoro-3-trifluoromethyl-benzyl)-N-(3-formyl-benzo[b]thiophen-2-yl)-benzenesulfonamide] | –
13 | – | 17 | Cc1c(N(Cc2ccc(F)c(C(F)(F)F)c2)S(=O)(=O)c2ccc(-c3cc(C(F)(F)F)on3)s2)sc2ccccc12 [Compound 329, N-(3-Methyl-benzo[b]thiophen-2-yl)-N-(4-fluoro-3-trifluoromethyl-benzyl)-5-(5-trifluoromethyl-isoxazol-3-yl)-thien-2-ylsulfonamide] | –
14 | 8.38 | 101 | Cc1c(N(CCCCC(F)(F)F)S(=O)(=O)c2ccc(C(=O)O)cc2F)sc2ccccc12 [Compound 591, N-(3-Methyl-benzo[b]thiophen-2-yl)-N-(5,5,5-trifluoro-pentyl)-2-fluoro-4-carboxy-benzenesulfonamide] | –
15 | – | – | Cc1c(N(Cc2ccccc2)S(=O)(=O)c2ccc(OCc3ccccc3)c(F)c2)sc2ccccc12 [Compound 846, N-(Benzyl)-4-benzyloxy-3-fluoro-N-(3-methyl-benzo[b]thiophen-2-yl)-benzenesulfonamide] | inhibition at 0.2 µM [4]: 28%
16 | 7.34 | – | O=S(=O)(c1ccccc1)N(Cc1ccc(OC(F)(F)F)cc1)c1cc2ccccc2s1 [Compound 58, N-(Benzo[b]thiophen-2-yl)-N-(4-trifluoromethoxy-benzyl)-benzenesulfonamide] | inhibition at 0.5 µM [3]: 98%

Row | pIC50 [1] | inhibition at 0.2 µM [2] [%] | Structure (SMILES) | other results
17 | 7.39 | – | Cc1c(N(Cc2ccc(F)c(C(F)(F)F)c2)S(=O)(=O)c2cnccc2N(C)C)sc2ccccc12 [Compound 360, N-(3-Methyl-benzo[b]thiophen-2-yl)-N-(4-fluoro-3-trifluoromethyl-benzyl)-4-dimethylamino-pyridin-3-yl-sulfonamide] | –
18 | 7.19 | 92 | O=S(=O)(CC(F)(F)F)N(Cc1ccc(F)c(C(F)(F)F)c1)c1cc2ccccc2s1 [Compound 697, N-(Benzo[b]thiophen-2-yl)-N-(4-fluoro-3-trifluoromethyl-benzyl)-2,2,2-trifluoro-ethanesulfonamide] | –
19 | 6.91 | 92 | CCCCN(c1cc2ccccc2s1)S(=O)(=O)c1ccc(N(C)C)cc1 [Compound 444, N-(Benzo[b]thiophen-2-yl)-N-(butyl)-4-dimethylamino-benzenesulfonamide] | –
20 | – | 16 | N#Cc1cccc(S(=O)(=O)N(CCCC(F)(F)F)c2cc3ccccc3s2)c1 [Compound 574, N-(Benzo[b]thiophen-2-yl)-N-(4,4,4-trifluoro-butyl)-3-cyano-benzenesulfonamide] | –
21 | – | 49 | O=S(=O)(c1cccnc1)N(CCCC(F)(F)F)c1cc2ccccc2s1 [Compound 383, N-(Benzo[b]thiophen-2-yl)-N-(4,4,4-trifluoro-butyl)-pyridin-3-ylsulfonamide] | –
22 | 8.15 | 93 | CCCCN(c1sc2ccccc2c1OC)S(=O)(=O)c1ccc(C(=O)O)cc1 [Compound 423, N-(Butyl)-N-(3-methoxy-benzo[b]thiophen-2-yl)-4-carboxy-benzenesulfonamide] | –
23 | – | – | O=S(=O)(c1ccccc1)N(Cc1ccc(F)c(C(F)(F)F)c1)c1sc2ncccc2c1Cl [Compound 813, N-(3-Chloro-thieno[2,3-b]pyridin-2-yl)-N-(4-fluoro-3-trifluoromethyl-benzyl)-benzenesulfonamide] | inhibition at 0.2 µM [4]: 90%; pIC50 [5]: 7.55
24 | – | – | O=S(=O)(c1ccccc1)N(Cc1ccc(F)c(C(F)(F)F)c1)c1sc2ccccc2c1CN1CCCC1 [Compound 381, N-(4-Fluoro-3-trifluoromethyl-benzyl)-N-(3-pyrrolidin-1-yl-methyl-benzo[b]thiophen-2-yl)-benzenesulfonamide] | % Inh @ 0.2 (μM) [2]: 20%
25 | 7.82 | 101 | Nc1ccc(S(=O)(=O)N(CCC(F)(F)F)c2cc3ccccc3s2)cc1 [Compound 499, 4-Amino-N-(benzo[b]thiophen-2-yl)-N-(3,3,3-trifluoro-propyl)-benzenesulfonamide] | –
26 | 7.04 | 68 | CCS(=O)(=O)N(CC(F)F)c1sc2ccccc2c1C [Compound 111, N-(2,2-Difluoro-ethyl)-N-(3-methyl-benzo[b]thiophen-2-yl)-ethanesulfonamide] | –
27 | – | – | O=S(=O)(c1ccc(C(F)(F)F)cc1)N(Cc1ccc(F)c(F)c1)c1sc2ccccc2c1Br [Compound 156, N-(3-Bromo-benzo[b]thiophen-2-yl)-N-(3,4-difluoro-benzyl)-4-trifluoromethyl-benzenesulfonamide] | inhibition at 0.5 µM [3]: 65%
28 | 9.00 | 90 | O=C(O)c1ccc(S(=O)(=O)N(Cc2ccc(F)c(C(F)(F)F)c2)c2sc3ccccc3c2CO)cc1 [Compound 218, N-(3-Hydroxymethyl-benzo[b]thiophen-2-yl)-N-(4-fluoro-3-trifluoromethyl-benzyl)-4-carboxy-benzenesulfonamide] | –
29 | 7.89 | 91 | CCS(=O)(=O)N(Cc1ccc(F)c(C(F)(F)F)c1)c1sc2ccccc2c1-c1cncnc1 [Compound 199, N-(4-Fluoro-3-trifluoromethyl-benzyl)-N-(3-pyrimidin-5-yl-benzo[b]thiophen-2-yl)-ethanesulfonamide] | –
30 | 6.97 | – | CN1CCC[C@H]1CN(c1sc2ccccc2c1Br)S(=O)(=O)c1ccccc1 [Compound 241, (S)—N-(3-Bromo-benzo[b]thiophen-2-yl)-N-(1-methyl-pyrrolidin-2-ylmethyl)-benzenesulfonamide] | inhibition at 0.5 µM [3]: 97%
31 | – | – | CCS(=O)(=O)N(Cc1ccc(F)c(OC)c1)c1sc2ccccc2c1C(C)=O [Compound 837, N-(3-Acetyl-benzo[b]thiophen-2-yl)-N-(4-fluoro-3-methoxy-benzyl)-ethanesulfonamide] | inhibition at 0.2 µM [4]: 103%; pIC50 [5]: 7.82
32 | 8.62 | 104 | CC(C)c1c(N(CCCCC(F)(F)F)S(=O)(=O)c2ccc(C(=O)O)cc2)sc2ccccc12 [Compound 568, N-(5,5,5-Trifluoro-pentyl)-N-(3-isopropyl-benzo[b]thiophen-2-yl)-4-carboxy-benzenesulfonamide] | –

Row | Structure (SMILES) | pIC50 [1] | inhibition at 0.2 µM [2] [%] | other results
33 | CCS(=O)(=O)N(CCOC(C)(C)C)c1sc2ccccc2c1C [Compound 110, N-(2-tert-Butoxy-ethyl)-N-(3-methyl-benzo[b]thiophen-2-yl)-ethanesulfonamide] | 8.14 | 97 | –
